In test [1] the target is T1, LPAR1 (Homo sapiens (Human), UniProt Q92633). Briefly: LPAR1 Calcium Flux Assay. Particulars: U937 cells overexpressing human LPAR1, LPA-stimulated calcium, FLIPR. Format: cell-based. Here is the method:
LPAR1 Calcium Flux Assays
A cDNA encoding the human LPAR1 receptor is synthesized and cloned into pDNA3 expression plasmid. The plasmid is transfected in U937 cells using Lipofectamine 2000 (Invitrogen Corp., USA). Clones stably expressing human LPAR1 are selected using puromycin and identified as cells that show Ca-influx in response to LPA.
U937 cells overexpressing human LPAR1 are seeded at 100,000 cells per well in a 96-well fibronectin (10 ug/ml) coated plate in 60 μl of assay buffer (HBSS containing 20 mM HEPES and 0.2% BSA) and then incubated for 60 minutes. Then 50 μl of a calcium indicator dye (Fluo-4 NW, Molecular Probes) are added to each well and incubation continued for 30 minutes at 37° C. and then 30 minutes at room temperature. 50 μl of test compounds in 4% DMSO are added to the cells and incubation continued at room temperature for 40 minutes. Cells are the stimulated by the addition of 50 μl of 128 nM LPA and intracellular calcium is measured using the FLIPR TETRA (Molecular Devices). IC50 values are determined using “Genedata Screener” analysis tool.
Target sequence in this assay (Q92633 whole entry): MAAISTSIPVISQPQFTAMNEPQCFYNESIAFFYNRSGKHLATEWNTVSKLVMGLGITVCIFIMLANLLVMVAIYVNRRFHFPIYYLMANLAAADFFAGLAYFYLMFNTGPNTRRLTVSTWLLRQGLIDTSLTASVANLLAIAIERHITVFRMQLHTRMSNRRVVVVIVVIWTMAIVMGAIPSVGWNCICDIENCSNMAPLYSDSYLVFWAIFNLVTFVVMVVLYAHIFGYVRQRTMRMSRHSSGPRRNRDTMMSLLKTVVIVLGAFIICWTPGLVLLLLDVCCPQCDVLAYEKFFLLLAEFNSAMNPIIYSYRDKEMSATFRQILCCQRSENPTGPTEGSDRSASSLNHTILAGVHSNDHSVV
(Calcium flux is commonly read through the fluorescence of an indicator in the cells.)

The target in another test is human LPAR3 (Homo sapiens (Human), UniProt Q9UBY5). The test is described as follows: LPAR3 Calcium Flux Assay. Format: cell-based. Conditions: U2OS cells overexpressing human LPAR3, LPA-stimulated calcium, FLIPR. Here is the method:
LPAR3 Calcium Flux Assays
A cDNA encoding the human LPAR3 receptor is synthesized and cloned into pDNA3 expression plasmid. The plasmid is transfected in U2OS cells using Lipofectamine 2000 (Invitrogen Corp., USA). Clones stably expressing human LPAR3 are selected using neomycin and identified as cells that show Ca-influx in response to LPA.
U2OS cells overexpressing human LPAR3 are seeded at 20,000-40,000 cells per well in a 96-well poly-D-lysine coated plate one day before the assay. Prior to the assay, the cells are washed once with assay buffer (HBSS containing 20 mM HEPES and 0.2% BSA) and then incubated in 50 μl of assay buffer for 60 minutes. Then 50 μl of a calcium indicator dye (Fluo-4 NW, Molecular Probes) are added to each well and incubation is continued for 30 minutes at 37° C. and then 30 minutes at room temperature. 50 μl of test compounds in 4% DMSO are added to the cells and incubation continued at room temperature for 40 minutes. Cells are stimulated by the addition of 50 μl of 128 nM LPA and intracellular calcium is measured using the FLIPR TETRA (Molecular Devices). IC50 values are determined using “Genedata Screener” analysis tool.

Test [2] has as its target T1, LPAR1. Briefly: LPAR1 Membrane Binding Assay. Particulars: membrane containing LPAR1, radio labeled ligand, SPA. Here is the method: LPAR1 Membrane Binding Assay
The ability of a compound to inhibit binding of a ligand (1-(4′-(4-(((benzyloxy)carbonyl)amino)-3-methylisoxazol-5-yl)-[1,1′-biphenyl]-4-yl)cyclopropane-1-carboxylic acid) to LPAR1 is assessed via a membrane binding assay. Membrane containing LPAR1 was purchased from Cerep (Cat. No. 290312RB). Prior to the assay, membrane is thawed and homogenized for 15 seconds. 50 μl of test compounds and 50 μl of radio labeled ligand are added to the 96-well plates and then 50 of μl membrane (50-400 ug/ml) are added. Next, 50 μl of SPA PVT WGA beads are added (1-5 mg/ml) and the plates are sealed and incubated at room temperate for 5 minutes. Radio activity is measured by Beta Counter and IC50 values are determined using “Genedata Screener” analysis tool.
Target sequence in this assay (Q92633 whole entry, species assumed): as the sequence (Q92633 whole entry) above

The test system of test [3] is Human hepatic stellate cell line LX-2. The test is described as follows: Calcium Influx of Human Hepatic Stellate Cells (LX-2). Conditions: LX-2 cells, LPA-stimulated calcium influx. Format: cell-based. Here is the method:
Calcium Influx of Human Hepatic Stellate Cells (LX-2)
Human hepatic stellate cell line LX-2 is purchased from EMD Millpore. LX-2 cells are seeded at 20,000-40,000 cells per well in a 96-well poly-D-lysine coated plate one day before the assay. Prior to the assay, the cells are washed once with assay buffer (HBSS containing 20 mM HEPES and 0.2% BSA) and then incubated in 50 μl of assay buffer for 60 minutes. Then 50 μl of a calcium indicator dye (Fluo-4 NW, Molecular Probes) are added to each well and incubation is continued for 30 minutes at 37° C. and then 30 minutes at room temperature. 50 μl of test compounds in 4% DMSO are added to the cells and incubation is continued at room temperature for 40 minutes. Cells are stimulated by the addition of 50 μl of 128 nM LPA and intracellular calcium is measured using the FLIPR TETRA (Molecular Devices). IC50 values are determined using “Genedata Screener” analysis tool.

What is called IC50 is the concentration needed to halve the response being measured. Usually Ki stands for a dissociation constant, usually derived from enzyme kinetics or from competition with a known ligand. A low value points to higher affinity.

Counter-ions that a name gives are not always drawn. A value given as a limit tells only on which side of the number the result lay.

human LPAR3, sequence (Q9UBY5 whole entry): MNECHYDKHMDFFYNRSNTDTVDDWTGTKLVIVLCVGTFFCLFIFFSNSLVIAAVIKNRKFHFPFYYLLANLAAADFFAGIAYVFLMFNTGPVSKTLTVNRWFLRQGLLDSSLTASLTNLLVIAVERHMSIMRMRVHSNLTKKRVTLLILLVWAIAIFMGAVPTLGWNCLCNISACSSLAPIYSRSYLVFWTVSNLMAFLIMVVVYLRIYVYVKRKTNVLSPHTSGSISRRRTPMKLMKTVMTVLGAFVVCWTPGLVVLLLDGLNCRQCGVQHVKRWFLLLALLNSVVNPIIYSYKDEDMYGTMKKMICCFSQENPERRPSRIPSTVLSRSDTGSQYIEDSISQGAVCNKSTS

For `CC(C)c1cncc(Nc2c(-c3ccc(-c4ccc(C5(C(=O)O)CC5)cc4C#N)cn3)cnn2C)n1` [Example 16, 1-[3-cyano-4-[6-[5-[(6-isopropylpyrazin-2-yl)amino]-1-methyl-pyrazol-4-yl]-3-pyridyl]phenyl]cyclopropanecarboxylic Acid; Hydrochloride], the IC50 was found to be 29.3 nM at LPAR1 [1], 4620 nM at human LPAR3 and 18.2 nM in test [3]. The affinity on LPAR1 [2] corresponds to a Ki of 53.8 nM.

Take `Cn1ncc(-c2ccc(-c3ccc(C4(C(=O)O)CC4)c(C#N)c3)cn2)c1Nc1cncc(OC2CC2)n1` [Example 9, 1-[2-cyano-4-[6-[5-[[6-(cyclopropoxy)pyrazin-2-yl]amino]-1-methyl-pyrazol-4-yl]-3-pyridyl]phenyl]cyclopropanecarboxylic Acid; Hydrochloride]: the values for the IC50 (at LPAR1 [1]; at human LPAR3; in test [3]) were 17.9 nM, above 10000 nM and 10.5 nM, respectively.

For `Cn1ncc(-c2ccc(-c3ccc(C4(C(=O)O)CC4)cc3)cn2)c1Nc1cncc(C(C)(C)F)n1` [Example 13, 1-[4-[6-[5-[[6-(1-fluoro-1-methyl-ethyl)pyrazin-2-yl]amino]-1-methyl-pyrazol-4-yl]-3-pyridyl]phenyl]cyclopropanecarboxylic Acid; Hydrochloride], the figures for the IC50 (on LPAR1 [1]; on human LPAR3; in test [3]) were 44 nM, 804 nM and 10.5 nM, respectively. At LPAR1 [2], this compound gave a Ki of 28 nM.

As to `Cc1cc(-c2ccc(-c3cnn(C)c3Nc3cncc(OC(C)C)n3)nc2)ccc1C1(C(=O)O)CC1` [Example 7, 1-[4-[6-[5-[(6-isopropoxypyrazin-2-yl)amino]-1-methyl-pyrazol-4-yl]-3-pyridyl]-2-methyl-phenyl]cyclopropanecarboxylic Acid; Hydrochloride], the half-maximal inhibitory concentration (IC50) was 27.1 nM at LPAR1 [1], 1050 nM at human LPAR3 and 16.3 nM in test [3]. This compound also came in with a Ki on LPAR1 [2] of 72.3 nM.

`Cn1ncc(-c2ccc(-c3ccc(C4(C(=O)O)CC4)cc3)cn2)c1Nc1cncc(OC2CCC2)n1` [Example 2, 1-[4-[6-[5-[[6-(cyclobutoxy)pyrazin-2-yl]amino]-1-methyl-pyrazol-4-yl]-3-pyridyl]phenyl]cyclopropanecarboxylic Acid]: the IC50 was 17.2 nM on LPAR1 [1], 327 nM on human LPAR3 and 9.22 nM in test [3].

As for `Cn1ncc(-c2ccc(-c3ccc(C4(C(=O)O)CC4)cc3)cn2)c1Nc1cncc(C(C)(F)F)n1` [Example 12, 1-[4-[6-[5-[[6-(1,1-difluoroethyl)pyrazin-2-yl]amino]-1-methyl-pyrazol-4-yl]-3-pyridyl]phenyl]cyclopropanecarboxylic Acid; Hydrochloride], the IC50 at LPAR1 [1] was found to be 24.4 nM; at human LPAR3, 4280 nM; in test [3] it was 14.4 nM. Besides, the inhibition constant Ki on LPAR1 [2] amounted to 40.9 nM.

Take `Cn1ncc(-c2ccc(-c3ccc(C4(C(=O)O)CC4)cc3)cn2)c1Nc1cncc(OC2CC(F)(F)C2)n1` [Example 5, 1-[4-[6-[5-[[6-(3,3-difluorocyclobutoxy)pyrazin-2-yl]amino]-1-methyl-pyrazol-4-yl]-3-pyridyl]phenyl]cyclopropanecarboxylic Acid]: the values for the IC50 (on LPAR1 [1]; on human LPAR3; in test [3]) were 26.9 nM, 49.6 nM and 17.1 nM, respectively. The compound further had a Ki at LPAR1 [2] of 51.4 nM.

As to `COC(C)(C)c1cncc(Nc2c(-c3ccc(-c4ccc(C5(C(=O)O)CC5)cc4)cn3)cnn2C)n1` [Example 6, 1-[4-[6-[5-[[6-(1-methoxy-1-methyl-ethyl)pyrazin-2-yl]amino]-1-methyl-pyrazol-4-yl]-3-pyridyl]phenyl]cyclopropanecarboxylic Acid; Hydrochloride], the values for the IC50 (on LPAR1 [1]; on human LPAR3; in test [3]) were 122 nM, 5270 nM and 60.5 nM, respectively. This compound displayed a Ki on LPAR1 [2] of 115 nM.

For the compound `CC(C)c1cncc(Nc2c(-c3ccc(-c4ccc(C5(C(=O)O)CC5)cc4CC#N)cn3)cnn2C)n1` [Example 15, 1-[3-(cyanomethyl)-4-[6-[5-[(6-isopropylpyrazin-2-yl)amino]-1-methyl-pyrazol-4-yl]-3-pyridyl]phenyl]cyclopropanecarboxylic Acid; Hydrochloride], the figures for the IC50 (at LPAR1 [1]; on human LPAR3; in test [3]) were 42.9 nM, above 10000 nM and 19.4 nM, respectively. Also, the Ki at LPAR1 [2] stood at 94.8 nM.

Turning to `CC(C)Oc1cncc(Nc2c(-c3ncc(-c4ccc(C5(C(=O)O)CC5)cc4)cc3F)cnn2C)n1` [Example 11, 1-[4-[5-fluoro-6-[5-[(6-isopropoxypyrazin-2-yl)amino]-1-methyl-pyrazol-4-yl]-3-pyridyl]phenyl]cyclopropanecarboxylic Acid; Hydrochloride], the IC50 on LPAR1 [1] was 11.1 nM; at human LPAR3, 495 nM; in test [3] it was 10 nM. Besides, on LPAR1 [2], the Ki worked out at 34.6 nM.

Turning to `Cn1ncc(-c2ccc(-c3ccc(C4(C(=O)O)CC4)c(C(F)(F)F)c3)cn2)c1Nc1cncc(OC2CC2)n1` [Example 8, 1-[4-[6-[5-[[6-(cyclopropoxy)pyrazin-2-yl]amino]-1-methyl-pyrazol-4-yl]-3-pyridyl]-2-(trifluoromethyl)phenyl]cyclopropanecarboxylic Acid; Hydrochloride], the IC50 in test [3] was determined as 7.13 nM.

Turning to `COCc1cc(C2(C(=O)O)CC2)ccc1-c1ccc(-c2cnn(C)c2Nc2cncc(C(C)C)n2)nc1` [Example 14, 1-[4-[6-[5-[(6-isopropylpyrazin-2-yl)amino]-1-methyl-pyrazol-4-yl]-3-pyridyl]-3-(methoxymethyl)phenyl]cyclopropanecarboxylic Acid; Hydrochloride], the values for the IC50 (on LPAR1 [1]; on human LPAR3; in test [3]) were 45.8 nM, above 10000 nM and 13.2 nM, respectively.

For the compound `Cn1ncc(-c2ccc(-c3ccc(C4(C(=O)O)CC4)cc3)cn2)c1Nc1cncc(OC(C)(C)C)n1` [Example 1, 1-[4-[6-[5-[(6-tert-butoxypyrazin-2-yl)amino]-1-methyl-pyrazol-4-yl]-3-pyridyl]phenyl]cyclopropanecarboxylic Acid], the IC50 on LPAR1 [1] is 74.4 nM; on human LPAR3 it was 1330 nM; in test [3], 37.2 nM.

On to `Cn1ncc(-c2ncc(-c3ccc(C4(C(=O)O)CC4)cc3)cc2F)c1Nc1cncc(OC2CC2)n1` [Example 3, 1-[4-[6-[5-[[6-(cyclopropoxy)pyrazin-2-yl]amino]-1-methyl-pyrazol-4-yl]-5-fluoro-3-pyridyl]phenyl]cyclopropanecarboxylic Acid; Hydrochloride], for which the results for the concentration for half-maximal inhibition (IC50) (at LPAR1 [1]; on human LPAR3; in test [3]) were 8.61 nM, 2480 nM and 3.8 nM, respectively. In addition, on LPAR1 [2], the Ki came out at 44.2 nM.

Consider `CC(C)c1cncc(Nc2c(-c3cnc(-c4ccc(C5(C(=O)O)CC5)cc4)cn3)cnn2C)n1` [Example 19, 1-[4-[5-[5-[(6-isopropylpyrazin-2-yl)amino]-1-methyl-pyrazol-4-yl]pyrazin-2-yl]phenyl]cyclopropanecarboxylic Acid; Hydrochloride], for which the values for the IC50 (at LPAR1 [1]; on human LPAR3; in test [3]) were 88.1 nM, 2400 nM and 16.3 nM, respectively.
